Experimental data published in patent US20250034135A1, “ANTI-APOPTOTIC PROTEIN BCL-2 INHIBITOR, PHARMACEUTICAL COMPOSITION AND USES THEREOF” (HANGZHOU HEALZEN THERAPEUTICS CO., LTD., priority 2021, published 2025).

Each molecule was assayed against BCL2 (Homo sapiens (Human), UniProt P10415) (assay: Molecular level activity test of anti-apoptotic protein BCL2 (HTRF, binding to Bim peptide)). Settings: HTRF, binding of BCL2 to Bim peptide; read-out: BCL2 nM (inhibitory activity, IC50).
How it was run: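 Signal comes from proximity of anti-His-labelled BCL2 and streptavidin-XL665-bound biotin-BIM peptide. Test compounds, added in 2% DMSO, were preincubated with protein and peptide for one hour; detection reagents then incubated four hours at room temperature before reading.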

BCL2, sequence (P10415 whole entry): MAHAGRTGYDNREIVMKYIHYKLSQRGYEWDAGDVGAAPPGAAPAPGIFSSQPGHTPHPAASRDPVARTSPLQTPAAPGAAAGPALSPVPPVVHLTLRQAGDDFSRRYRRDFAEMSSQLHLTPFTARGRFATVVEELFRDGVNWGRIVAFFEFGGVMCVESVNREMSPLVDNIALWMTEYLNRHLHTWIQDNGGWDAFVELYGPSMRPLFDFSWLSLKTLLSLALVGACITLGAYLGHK

IC50, < 10 nM:
CC(C)c1ccccc1[C@@H]1CN(Cc2ccc(F)cc2F)CCN1C1CC2(CCN(c3ccc(C(=O)NS(=O)(=O)c4cc([N+](=O)[O-])c(NCC5(F)CCOCC5)c5c4OCO5)c(Oc4cnc5[nH]ccc5c4)c3)CC2)C1 [compound 169, (R)-2-((1H-pyrrolo[2,3-b]pyrid-5-yl)oxy)-4-(2-(4-(2,4-difluorobenzyl)-2-(2-isopropylphenyl)piperazin-1-yl)-7-azaspiro[3.5]non-7-yl)-N-((7-(((4-fluorotetrahydro-2H-pyran-4-yl)methyl)amino)-6-nitrobenzo[d][1,3]dioxocyclopent-4-yl)sulfonyl)benzamide]
CC(C)c1ccccc1[C@@H]1CN(Cc2c(F)cccc2F)CCN1C1CC2(CCN(c3ccc(C(=O)NS(=O)(=O)c4cc([N+](=O)[O-])c(NCC5(F)CCOCC5)c5c4OCO5)c(Oc4cnc5[nH]ccc5c4)c3)CC2)C1 [compound 170, (R)-2-((1H-pyrrolo[2,3-b]pyrid-5-yl)oxy)-4-(2-(4-(2,6-difluorobenzyl)-2-(2-isopropylphenyl)piperazin-1-yl)-7-azaspiro[3.5]non-7-yl)-N-((7-(((4-fluorotetrahydro-2H-pyran-4-yl)methyl)amino)-6-nitrobenzo[d][1,3]dioxocyclopent-4-yl)sulfonyl)benzamide]
COc1cc(CN2CCN(C3CC4(CCN(c5ccc(C(=O)NS(=O)(=O)c6cc([N+](=O)[O-])c(NCC7(F)CCOCC7)c7c6OCO7)c(Oc6cnc7[nH]ccc7c6)c5)CC4)C3)[C@H](c3ccccc3C(C)C)C2)cc2cc(C)oc12 [compound 171, (R)-2-((1H-pyrrolo[2,3-b]pyrid-5-yl)oxy)-N-((7-(((4-fluorotetrahydro-2H-pyran-4-yl)methyl)amino)-6-nitrobenzo[d][1,3]dioxocyclopent-4-yl)sulfonyl)-4-(2-(2-(2-isopropylphenyl)-4-((7-methoxy-2-methylbenzofuran-5-yl)methyl)piperazin-1-yl)-7-azaspiro[3.5]non-7-yl)benzamide]
CC(C)c1ccccc1[C@@H]1CN(Cc2ccc(C3CC3)cc2)CCN1C1CC2(CCN(c3ccc(C(=O)NS(=O)(=O)c4cc([N+](=O)[O-])c(NCC5(F)CCOCC5)c5c4OCO5)c(Oc4cnc5[nH]ccc5c4)c3)CC2)C1 [compound 172, (R)-2-((1H-pyrrolo[2,3-b]pyrid-5-yl)oxy)-4-(2-(4-(4-cyclopropylbenzyl)-2-(2-isopropylphenyl)piperazin-1-yl)-7-azaspiro[3.5]non-7-yl)-N-((7-(((4-fluorotetrahydro-2H-pyran-4-yl)methyl)amino)-6-nitrobenzo[d][1,3]dioxocyclopent-4-yl)sulfonyl)benzamide]
COc1cc(CN2CCN(C3CC4(CCN(c5ccc(C(=O)NS(=O)(=O)c6cc([N+](=O)[O-])c(NCC7(F)CCOCC7)c7c6OCO7)c(Oc6cnc7[nH]ccc7c6)c5)CC4)C3)[C@H](c3ccccc3C(C)C)C2)ccc1C1CC1 [compound 173, (R)-2-((1H-pyrrolo[2,3-b]pyrid-5-yl)oxy)-4-(2-(4-(4-cyclopropyl-3-methoxybenzyl)-2-(2-isopropylphenyl)piperazin-1-yl)-7-azaspiro[3.5]non-7-yl)-N-((7-(((4-fluorotetrahydro-2H-pyran-4-yl)methyl)amino)-6-nitrobenzo[d][1,3]dioxocyclopent-4-yl)sulfonyl)benzamide]
COc1ccc(CN2CCN(C3CC4(CCN(c5ccc(C(=O)NS(=O)(=O)c6cc([N+](=O)[O-])c(NC[C@H]7CC[C@](C)(O)CC7)c7c6OCO7)c(Oc6cnc7[nH]ccc7c6)c5)CC4)C3)[C@H](c3ccccc3C(C)C)C2)cn1 [compound 174, 2-((1H-pyrrolo[2,3-b]pyrid-5-yl)oxy)-N-((7-((((1r, 4r)-4-hydroxy-4-methylcyclohexyl)methyl)amino)-6-nitrobenzo[d][1,3]dioxocyclopent-4-yl)sulfonyl)-4-(2-((R)-2-(2-isopropylphenyl)-4-((6-methoxypyrid-3-yl)methyl)piperazin-1-yl)-7-azaspiro[3.5]non-7-yl)benzamide]
CC(C)c1ccccc1[C@@H]1CN(Cc2ccc(F)c(F)c2)CCN1C1CC2(CCN(c3ccc(C(=O)NS(=O)(=O)c4cc([N+](=O)[O-])c(NC[C@H]5CC[C@](C)(O)CC5)c5c4OCO5)c(Oc4cnc5[nH]ccc5c4)c3)CC2)C1 [compound 176, 2-((1H-pyrrolo[2,3-b]pyrid-5-yl)oxy)-4-(2-((R)-4-(3,4-difluorobenzyl)-2-(2-isopropylphenyl)piperazin-1-yl)-7-azaspiro[3.5]non-7-yl)-N-((7-((((1r, 4r)-4-hydroxy-4-methylcyclohexyl)methyl)amino)-6-nitrobenzo[d][1,3]dioxocyclopent-4-yl)sulfonyl)benzamide]
CC(C)c1ccccc1[C@@H]1CN(Cc2c(F)cccc2F)CCN1C1CC2(CCN(c3ccc(C(=O)NS(=O)(=O)c4cc([N+](=O)[O-])c(NC[C@H]5CC[C@](C)(O)CC5)c5c4OCO5)c(Oc4cnc5[nH]ccc5c4)c3)CC2)C1 [compound 177, 2-((1H-pyrrolo[2,3-b]pyrid-5-yl)oxy)-4-(2-((R)-4-(2,6-difluorobenzyl)-2-(2-isopropylphenyl)piperazin-1-yl)-7-azaspiro[3.5]non-7-yl)-N-((7-((((1r, 4r)-4-hydroxy-4-methylcyclohexyl)methyl)amino)-6-nitrobenzo[d][1,3]dioxocyclopent-4-yl)sulfonyl)benzamide]
CC(C)c1ccccc1[C@@H]1CN(Cc2ccc(C3CC3)cc2)CCN1C1CC2(CCN(c3ccc(C(=O)NS(=O)(=O)c4cc([N+](=O)[O-])c(NC[C@H]5CC[C@](C)(O)CC5)c5c4OCO5)c(Oc4cnc5[nH]ccc5c4)c3)CC2)C1 [compound 178, 2-((1H-pyrrolo[2,3-b]pyrid-5-yl)oxy)-4-(2-((R)-4-(4-cyclopropylbenzyl)-2-(2-isopropylphenyl)piperazin-1-yl)-7-azaspiro[3.5]non-7-yl)-N-((7-((((1r, 4r)-4-hydroxy-4-methylcyclohexyl)methyl)amino)-6-nitrobenzo[d][1,3]dioxocyclopent-4-yl)sulfonyl)benzamide]
COc1cc(CN2CCN(C3CC4(CCN(c5ccc(C(=O)NS(=O)(=O)c6cc([N+](=O)[O-])c(NC[C@H]7CC[C@](C)(O)CC7)c7c6OCO7)c(Oc6cnc7[nH]ccc7c6)c5)CC4)C3)[C@H](c3ccccc3C(C)C)C2)ccc1C1CC1 [compound 179, 2-((1H-pyrrolo[2,3-b]pyrid-5-yl)oxy)-4-(2-((R)-4-(4-cyclopropyl-3-methoxybenzyl)-2-(2-isopropylphenyl)piperazin-1-yl)-7-azaspiro[3.5]non-7-yl)-N-((7-((((1r, 4r)-4-hydroxy-4-methylcyclohexyl)methyl)amino)-6-nitrobenzo[d][1,3]dioxocyclopent-4-yl)sulfonyl)benzamide]
COc1cc(CN2CCN(C3CC4(CCN(c5ccc(C(=O)NS(=O)(=O)c6cc([N+](=O)[O-])c(NC[C@H]7CC[C@](C)(O)CC7)c7c6OCO7)c(Oc6cnc7[nH]ccc7c6)c5)CC4)C3)[C@H](c3ccccc3C(C)C)C2)cc2cc(C)oc12 [compound 180]
COc1ccc(CN2CCN(C3CC4(CCN(c5ccc(C(=O)NS(=O)(=O)c6cc([N+](=O)[O-])c(NCC7(F)CCOCC7)c7c6OCCO7)c(Oc6cnc7[nH]ccc7c6)c5)CC4)C3)[C@H](c3ccccc3C(C)C)C2)cc1 [compound 181]
